Results taken from BindingDB's records for doi:10.1021/jm030795v (Wroclaw University of Technology, 2003).
Structures can show the parent of a compound that is named as a salt.

The compounds below were run against Cytosol aminopeptidase (Sus scrofa) (assay: Binding affinity for cytosolic leucine aminopeptidase (LAP) from porcine kidney).

Ki [µM]	SMILES
0.06	CC(C)CC(N)C=O (stereo not drawn) [2-Amino-4-methyl-pentanal]
58	CC(C)CC(OP(=O)(O)C(N)CC(C)C)C(=O)O (stereo not drawn) [2-[(1-Amino-3-methyl-butyl)-hydroxy-phosphinoyloxy]-4-methyl-pentanoic acid]

SMILES	Ki [µM]
CC(C)CC(O)P(=O)(O)NCC(=O)O (stereo not drawn) [{[hydroxy(1-hydroxy-3-methylbutyl)phosphoryl]amino}acetic acid; dilithium salt]	4.88
